Laboratory results from US12370183B2, “Compositions and methods for treating malaria” (Rutgers, The State University of New Jersey, priority 2020, dated 2025).
Where two headings read alike, the source gives them in different places.

Experiments:
[1] = in vitro; format: cell-based; conditions: human
From the text: The present invention relates to methods of treating malaria with tetrahydrobenzonaphtyridine carboxanilide (TBN) derivatives and related pyrrolinones and hydrolysis products thereof. These compounds are active against Plasmodium falciparum strains that are resistant to multiple drugs currently on the market. The present invention further relates to novel compounds and pharmaceutical compositions comprising such compounds. The compounds have been synthesized and tested for their potency in the 3D7 strain of Plasmodium falciparum. Their cytotoxicity was also tested in the BJ human fibroblast line. No compounds show significant cytotoxicity.
(§1) A high-throughput screen performed against the Plasmodium parasite. About 8,000 compounds were screened. Each hit was tested against resistant P. falciparum variants K1, V1S, D10DD, ATP4 1247, and C2B. Potency against these assays assured that the chemotype acts through a mechanism distinct from that of halofantrine, chloroquine, mefloquine, pyrimethamine, proguanil, atovaquone, and (+)SJ733. The toxicity of the compounds was also measured by testing their lethality against a BJ cell line (human fibroblasts). No TBNs were toxic. A structure activity investigation was performed in order to improve the EC50 of the TBNs to the single-digit nanomolar range, as well as to increase the water solubility.

[2] = test system: resistant P. falciparum variant K1; assay: Potency against resistant P. falciparum variant K1 (EC50); format: cell-based; conditions: Plasmodium falciparum, K1, read-out: K1 EC50 (μM)
Method: as §1
Substituents were installed at N−2 by using a variety of methods. Reductive alkylation (Abdel-Magid, A. F.; Mehrman, S. J. A Review on the Use of Sodium Triacetoxyborohydride in the Reductive Amination of Ketones and Aldehydes. Org. Process Res. Dev. 2006, 10 (5), 971-1031) was a dependable technique that produced over fifteen analogues. Conjugate additions and nucleophilic substitutions provided most of the others. A type of reductive alkylation that uses carboxylic acids instead of aldehydes (the Beller reduction) led to two analogues (Sorribes, I.; Junge, K.; Beller, M. Direct Catalytic N-Alkylation of Amines with Carboxylic Acids. J. Am. Chem. Soc. 2014, 136 (40), 14314-14319. Some of the compounds listed were synthesized through other means, or were derived from other TBNs. Compounds 66 and 128 were produced by the amidation of acids 132 and 133, which had the corresponding substitution already installed. TBNs 93, and 94 were produced from the Pfitzinger products formed from the condensation of isatin with (R)-1-(1-phenylethyl)piperidin-4-one (134) and (S)-1-(1-phenylethyl)piperidin-4-one (135), respectively.

[3] = test system: 3D7 strain of Plasmodium falciparum; assay: Potency in the 3D7 strain of Plasmodium falciparum (EC50); format: cell-based; conditions: Plasmodium falciparum
[4] = Solubility of the desbenzo analogue compared with 66; format: physicochemical
Method: For example, the melting point of 66 is 220° C. and the desbenzo analogue is 83.5° C.

[5] = 3D7, read-out: 3D7 Mean EC50 (μM)

| SMILES | EC50 [1] [µM] | EC50 [2] [µM] | EC50 [3, 5] [µM] | EC50 ([3]; 3D7) [µM] | solubility, in words [4] |
| --- | --- | --- | --- | --- | --- |
| CN(C)C(=O)CCN1CCc2nc3ccccc3c(C(=O)Nc3ccc(F)c(F)c3)c2C1 [Compound 110, N-(3,4-Difluorophenyl)-2-(3-(dimethylamino)-3-oxopropyl)-1,2,3,4-tetrahydrobenzo[b][1,6]naphthyridine-10-carboxamide] | > 23.3 | 0.658 | 0.888 ± 0.459 |  |  |
| O=C(Nc1ccc(F)c(F)c1)c1ccnc2c1CN(Cc1ccccc1)CC2 [Compound 68, 6-Benzyl-N-(3,4-difluorophenyl)-5,6,7,8-tetrahydro-1,6-naphthyridine-4-carboxamide] |  |  |  | 3.48 | increased solubility versus 66 |
| N#CCCN1CCc2nc3ccccc3c(C(=O)Nc3ccc(F)c(F)c3)c2C1 [Compound 113, 2-(2-Cyanoethyl)-N-(3,4-difluorophenyl)-1,2,3,4-tetrahydrobenzo[b][1,6]naphthyridine-10-carboxamide] | > 23.3 | 2.05 ± 0.256 | 1.62 ± 1.25 |  |  |
| C=CCN1CCc2nc3ccccc3c(C(=O)Nc3ccc(F)c(F)c3)c2C1 [Compound 92, 2-Allyl-N-(3,4-difluorophenyl)-1,2,3,4-tetrahydrobenzo[b][1,6]naphthyridine-10-carboxamide] | > 23.3 | 0.0719 | 0.128 ± 0.0238 |  |  |
| COC(=O)CCN1CCc2nc3ccccc3c(C(=O)Nc3ccc(F)c(F)c3)c2C1 [Compound 109, Methyl 3-(10-((3,4-difluorophenyl)carbamoyl)-3,4-dihydrobenzo[b][1,6]naphthyridin-2(1H)-yl)propanoate] | > 23.3 | 0.487 | 0.673 ± 0.107 |  |  |
